Among the data in PMC3064226 (The Journal of Biological Chemistry, 2011) are Km values, retold here.

In this test the target is T1, PfnPrx (His6-nPrx1-164) (Plasmodium falciparum, UniProt Q8IJD0).
T1 sequence (Q8IJD0 1-164): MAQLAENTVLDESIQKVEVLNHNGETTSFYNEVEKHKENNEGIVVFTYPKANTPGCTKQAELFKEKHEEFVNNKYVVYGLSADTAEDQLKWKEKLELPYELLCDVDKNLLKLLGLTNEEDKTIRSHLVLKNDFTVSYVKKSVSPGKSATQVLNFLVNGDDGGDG
The test can be described thus: NADPH oxidation at […] nm, coupled to glutathione reductase/GSH/PfGrx1. The class given is biochemical. The following applies: read-out: apparent Km; 10 μM PfGrx1, 1 mM GSH, 200 μM NADPH, 100 mM HEPES pH 7.6, 1 mM EDTA, 25 °C.

Usually Km stands for the substrate concentration at which the rate is half of its maximum. As to `CC(C)(OO)c1ccccc1` [cumene hydroperoxide], the Michaelis constant (Km) was about 30 µM.
